Laboratory results reported in patent US8618096B2, “Prodrug compositions and methods for using the same in treating cancer and malaria” (The Regents of the University of California, priority 2008, dated 2013).

How the values were obtained:
[1] = system: 3D7 strain of P. falciparum; test: Antimalarial activity, parasite growth in human erythrocytes (YOYO-1 flow cytometry), 3D7 strain; assay type: cell-based; conditions: Plasmodium falciparum, 3D7, Erythrocyte; 72 hr growth period, eight-point dose-response
Experimental: (§1) Cultures of 3D7 and W2 strains of P. falciparum parasites were grown in purified human erythrocytes and synchronous cultures were placed into 96-well plates containing test compounds. After a 72 hr growth period, cultures were fixed for 1 hr at room temperature in 1% paraformaldehyde and stained with 50 nM YOYO-1 for about 24 hr in the dark. Samples were analyzed on a Becton-Dickinson LSR2 fitted with a microplate reader. Uninfected erythrocytes were used to determine background autofluorescence. Parasite growth in each sample was determined relative to infected erythrocytes without test compound. “Eight-point dose-response curves were generated and EC50 values determined using GRAPHPAD PRISM® software”.

[2] = Fe(II) activation and drug release in vitro (LC/MS); assay type: physicochemical
Experimental: In a series of experiments, the compound of Example 1 (0.03 mM) was incubated with various amounts (0-100 equivalents) of a ferrous iron salt (ferrous bromide) in a 1:1 solution of acetonitrile and an aqueous buffer at ambient temperature. Either of two buffers were used in these studies: pH 5.5 sodium acetate buffer intended to mimic a lysosomal environment or pH 7.4 phosphate buffered saline. At various time points, a 10 μl sample of the incubation mixture was removed and analyzed by liquid chromatography/mass spectroscopy (LC/MS) to identify the expected products of iron-promoted degradation and drug release. A Waters Alliance/ZQ micromass LC/MS system and a 15 min method employing gradient elution with acetonitrile-water mobile phase (containing 0.1% formic acid) was employed. In the absence of ferrous iron salts, the compound of example 1 was stable for 48 hrs, showing no detectable chemical degradation by LC/MS spectroscopy. In the presence of ferrous bromide however, the compound of example 1 was rapidly (less than 1 hour) converted into the expected ketone (analogous to G, FIG. 2) resulting from iron-promoted degradation of the trioxolane ring. Also observed was a signal attributable to the released drug species, 2,5-dichloroaniline.

[3] = system: W2 strain of P. falciparum; test: Antimalarial activity, parasite growth in human erythrocytes (YOYO-1 flow cytometry), W2 strain; assay type: cell-based; conditions: Plasmodium falciparum, W2, Erythrocyte; 72 hr growth period, eight-point dose-response
Experimental: as §1

[4] = system: W2 strain P. falciparum parasites; test: Evaluation of drug release in cells: food vacuole phenotype in Giemsa-stained blood smears; assay type: cell-based, Plasmodium falciparum; conditions: 24 hrs, ring stage W2 parasites
Experimental: Cmpd 72 is the prodrug form of a parasite cysteine protease inhibitor, specifically an inhibitor of the proteases falcipain-2 and falcipain-3 from the malaria parasite Plasmodium falciparum. […] Thus, observation of the food vacuole phenotype upon treatment of cultured P. falciparum parasites with the protease inhibitor prodrug would constitute positive evidence for release of the free drug inside the parasite.
Synchronized W2 strain P. falciparum parasites (ring stage) were grown as described herein and incubated in the presence of test and control compounds for 24 hrs. Next, a blood smear was made, fixed with methanol, and stained with Giemsa, as known in the art. Parasites were then imaged at 100× magnification to identify the presence or absence of the food vacuole phenotype.

Structure (SMILES)	EC50 [1]	EC50 [3]	food vacuole phenotype (falcipain inhibition) ([4]; 1.1 uM, FIG. 3C-E)	other results
O=C(CCC1(CCOC(=O)Nc2cc(Cl)ccc2Cl)OOC2(O1)C1CC3CC(C1)CC2C3)NCCN1CCOCC1 (stereo not drawn) [Cmpd 40, 2-(5,5-spiroadamantyl-3-(3-(2-morpholinoethylamino)-3-oxopropyl)-1,2,4-trioxolan-3-yl)ethyl-2,5-dichlorophenylcarbamate]	16 nM	24 nM		time of conversion into the expected ketone (iron-promoted degradation of the trioxolane ring) ([2]; 0.03 mM, in the presence of ferrous bromide, 1:1 acetonitrile and aqueous buffer, ambient temperature): less than 1 hour; stability in the absence of ferrous iron salts (no detectable chemical degradation by LC/MS) ([2]; 48 h, 0.03 mM): ≥ 48 h; release of drug species 2,5-dichloroaniline ([2]; in the presence of ferrous bromide, during the course of the experiment, LC/MS): the quantity of 2,5-dichloroaniline increased
O=C(CCC1(CCOC(=O)N2CCN(c3ccccc3)CC2)OOC2(O1)C1CC3CC(C1)CC2C3)NCCN1CCOCC1 (stereo not drawn) [Cmpd 45, 2-(5,5-spiroadamantyl-3-(3-(2-morpholinoethylamino)-3-oxopropyl)-1,2,4-trioxolan-3-yl)ethyl 4-phenylpiperazine-1-carboxylate]	9 nM	4.9 nM		
CN(Cc1ccccc1)C(=O)OCCC1(CCC(=O)NCCN2CCOCC2)OOC2(O1)C1CC3CC(C1)CC2C3 (stereo not drawn) [Cmpd 47, 2-(5,5-spiroadamantyl-3-(3-(2-morpholinoethylamino)-3-oxopropyl)-1,2,4-trioxolan-3-yl)ethyl benzyl(methyl)carbamate]	16 nM	15 nM		
O=C(CCC1(CCOC(=O)N(CCCNc2ccnc3cc(Cl)ccc23)Cc2ccco2)OOC2(O1)C1CC3CC(C1)CC2C3)NCCN1CCOCC1 (stereo not drawn) [Cmpd 48, 2-(5,5-spiroadamantyl-3-(3-(2-morpholinoethylamino)-3-oxopropyl)-1,2,4-trioxolan-3-yl)ethyl 3-(7-chloroquinolin-4-ylamino)propyl(furan-2-ylmethyl)carbamate]	38 nM	62 nM		
O=C(CCC1(CCO)OOC2(O1)C1CC3CC(C1)CC2C3)NCCCN1CCCC1=O (stereo not drawn) [Cmpd 58, 3-(3-(2-hydroxyethyl)-5,5-spiroadamantyl-1,2,4-trioxolan-3-yl)-N-(3-(2-oxopyrrolidin-1-yl)propyl)propanamide]			does not produce the protease-inhibited phenotype	
CC(C)(C[C@H](NC(=O)N1CCOCC1)C(=O)N[C@H](/C=C/S(=O)(=O)c1ccccc1)CCc1ccccc1)OC(=O)OCCC1(CCC(=O)NCCCN2CCCC2=O)OOC2(O1)C1CC3CC(C1)CC2C3 (stereo partly drawn) [Cmpd 72]			does produce the falcipain-inhibited phenotype	
CC(C)C[C@H](NC(=O)[C@H]1O[C@@H]1C(=O)O)C(=O)NCCCCN=C(N)N [E64, reference compound]				food vacuole phenotype (falcipain inhibition) ([4]; 3.3 uM, FIG. 3B): swollen, dark-staining food vacuole
CC(C)(O)C[C@H](NC(=O)N1CCOCC1)C(=O)N[C@H](/C=C/S(=O)(=O)c1ccccc1)CCc1ccccc1 [N—((S)-4-hydroxy-4-methyl-1-oxo-1-((S,E)-5-phenyl-1-(phenylsulfonyl)pent-1-en-3-ylamino)pentan-2-yl)morpholine-4-carboxamide, reference compound]			swollen, dark-staining food vacuole	
